Where two headings read alike, the source gives them in different places.
Tests used:
Velvetleaf (VELE) [1] = assay: whole plant or invertebrate; format: in vivo, Abutilon theophrasti
Giant foxtail (GIFT) = assay: whole plant or invertebrate; format: in vivo
Corn [2] = system: Corn
Corn [3] = details: […]
Shattercane (SHCA) = format: in vivo; details: […]
Velvetleaf (VELE) [4] = format: in vivo, Abutilon theophrasti; details: […]
[5] = observed 7 days after POE (Table 35)
[6] = observed 7 days after POE (Table 36)
[7] = […], PPI, 14 days after PPI (Table 34)
[8] = observed 8 days later (Table 32)
[9] = observed 8 days later (Table 33)

Compound	% Inhibition VELE (Velvetleaf (VELE) [1]; in vivo) [%]	% Inhibition GIFT (Giant foxtail (GIFT); in vivo) [%]	% Inhibition Corn (Corn [2]; in vivo) [%]	% Inhibition Corn (Corn [3]; [5]) [%]	% Inhibition Corn (Corn [3]; [6]) [%]	% Inhibition SHCA (Shattercane (SHCA); [5]) [%]	% Inhibition SHCA (Shattercane (SHCA); [6]) [%]	% Inhibition VELE (Velvetleaf (VELE) [4]; [5]) [%]	% Inhibition VELE (Velvetleaf (VELE) [4]; [6]) [%]	% Inhibition VELE (Velvetleaf (VELE) [1]; [7]) [%]	% Inhibition GIFT (Giant foxtail (GIFT); [7]) [%]	% Inhibition Corn (Corn [2]; [7]) [%]	% Inhibition Corn (Corn [3]; [8]) [%]	% Inhibition Corn (Corn [3]; [9]) [%]	% Inhibition SHCA (Shattercane (SHCA); [8]) [%]	% Inhibition SHCA (Shattercane (SHCA); [9]) [%]	% Inhibition VELE (Velvetleaf (VELE) [4]; [8]) [%]	% Inhibition VELE (Velvetleaf (VELE) [4]; [9]) [%]
CCOC(=O)c1sc(Cl)nc1C(F)(F)F [compound 60]	90	75	60	40	60	60	35	80	65									
CCCCOC(=O)c1sc(Cl)nc1C(F)(F)F [compound 61]	90	70	60	35	55	65	35	75	65									
CCCCCCOC(=O)c1sc(Cl)nc1C(F)(F)F [compound 62]	95	75	65	30	55	65	30	80	60									
CCCCCCCCOC(=O)c1sc(Cl)nc1C(F)(F)F [compound 63]	90	70	65	30	55	70	40	80	65									
O=C(Oc1ccccc1)c1sc(Cl)nc1C(F)(F)F [compound 64]	90	70	60	20	60	65	35	75	70									
O=C(O)c1sc(Cl)nc1C(F)(F)F [compound 65]	90	70	45	25	50	70	30	80	65									
CCOC(=O)c1sc(Br)nc1C(F)(F)F [compound 66]	90	70	50	30	50	60	25	80	60									
CCOC(=O)c1sc(I)nc1C(F)(F)F [compound 67]	95	75	55	35	45	65	40	85	70									
O=C(O)c1sc(Cl)nc1C(F)(F)F [compound 68]	80	65	45	25	65	70	45	85	60									
Cc1csc(=NC(C)c2ccccc2)s1 (stereo not drawn) [compound 69]	90	70	35	30	50	75	40	80	70									
[O-][n+]1ccccc1Sc1nc(Cl)c(Cl)c(Cl)c1Cl [compound 70]	95	70	75	70	65	70	25	90	85									
O=C(O)COc1cc(C(F)(F)F)cc(C(F)(F)F)c1 [compound 71]	90	70	30	20	45	65	30	85	75									
CC(Cl)C(=O)Nc1nc(C(F)(F)F)c(I)s1 (stereo not drawn) [compound 72]	90	75	75	70	60	75	30	85	70									
Cc1ccc(SC2(C#N)CC2)cc1C [compound 73]	90	90	70	70	70	70	35	75	70									
CC(C)(C)c1ccccc1SCCC#N [compound 74]	90	85	70	65	60	80	20	80	70									
C=CCC(C)(C#N)Sc1ccc(C(C)C)cc1 (stereo not drawn) [compound 75]	85	75	75	70	65	70	40	85	75									
COC(=O)ON=C(N)COc1cccc2cccnc12 [compound 76]	90	70	65	55	55	65	30	80	70									
O=C(O)COC(c1ccccc1)c1ccccc1 [compound 80]										100	65	40	20	55	80	35	85	75
